According to patent US20250074920A1, “MACROCYCLIC COMPOUNDS AND USE AS KINASE INHIBITORS” (BLOSSOMHILL THERAPEUTICS, INC., priority 2022, published 2025):

Legend:
Assay in all cases: KINOMEscan kinase binding assay
Details in all cases: at 1 μM
MET = tested on: MET
Procedure: (§1) Kinase binding assays were performed at Eurofins/DiscoveRx using the general KINOMEscan Protocol (Fabian, M. A. et al., “A small molecule-kinase interaction map for clinical kinase inhibitors,” Nat. Biotechnol. 2005, 23(3):329-36). For most assays, kinase-tagged T7 phage strains were prepared in an E. coli host derived from the BL21 strain. E. coli were grown to log-phase and infected with T7 phage and incubated with shaking at 32° C. until lysis. The lysates were centrifuged and filtered to remove cell debris. The remaining kinases were produced in HEK-293 cells and subsequently tagged with DNA for qPCR detection. Streptavidin-coated magnetic beads were treated with biotinylated small molecule ligands for 30 minutes at room temperature to generate affinity resins for kinase assays. The liganded beads were blocked with excess biotin and washed with blocking buffer (SeaBlock (Pierce), 1% BSA, 0.05% Tween 20, 1 mM DTT) to remove unbound ligand and to reduce nonspecific binding. Binding reactions were assembled by combining kinases, liganded affinity beads, and test compounds in 1× binding buffer (20% SeaBlock, 0.17×PBS, 0.05% Tween 20, 6 mM DTT). All reactions were performed in polystyrene 96-well plates in a final volume of 0.135 mL. The assay plates were incubated at room temperature with shaking for 1 hour and the affinity beads were washed with wash buffer (1×PBS, 0.05% Tween 20). The beads were then re-suspended in elution buffer (1×PBS, 0.05% Tween 20, 0.5 μM non-biotinylated affinity ligand) and incubated at room temperature with shaking for 30 minutes. The kinase concentration in the eluates was measured by qPCR. Results for compounds tested in this assay at a given concentration are reported as “% Ctrl”, where lower numbers indicate stronger binding in the matrix. % Ctrl was calculated as (test compound signal-positive control signal)/(negative control signal-positive control signal)×100. Dissociation constants (Kds) for test compound-kinase interactions were calculated by measuring the amount of kinase captured on the solid support as a function of the test compound concentration.

FLT3 = tested on: FLT3
Procedure: as §1

DDR1 = tested on: DDR1
Procedure: as §1

ABL1-phosphorylated = tested on: ABL1-phosphorylated
Procedure: as §1

AXL = tested on: AXL
Procedure: as §1

LTK = tested on: LTK
Procedure: as §1

EGFR = tested on: EGFR
Procedure: as §1

FYN = tested on: FYN
Procedure: as §1

EGFR(E746-A750del) = tested on: EGFR(E746-A750del)
Procedure: as §1

FLT4 = tested on: FLT4
Procedure: as §1

TIE1 = tested on: TIE1
Procedure: as §1

FLT3(R834Q) = tested on: FLT3(R834Q)
Procedure: as §1

IGF1R = tested on: IGF1R
Procedure: as §1

ROS1 = tested on: ROS1
Procedure: as §1

RET(V804M) = tested on: RET(V804M)
Procedure: as §1

ABL2 = tested on: ABL2
Procedure: as §1

KIT = tested on: KIT
Procedure: as §1

[1] = tested on: ABL1(Y253F)-phosphorylated
Procedure: as §1

EPHA3 = tested on: EPHA3
Procedure: as §1

[2] = tested on: ABL1(H396P)-phosphorylated
Procedure: as §1

TYRO3 = tested on: TYRO3
Procedure: as §1

[3] = tested on: ABL1(F3171)-phosphorylated
Procedure: as §1

EGFR(S752-1759del) = tested on: EGFR(S752-1759del)
Procedure: as §1

FGR = tested on: FGR
Procedure: as §1

FLT3(D835H) = tested on: FLT3(D835H)
Procedure: as §1

PDGFRA = tested on: PDGFRA
Procedure: as §1

EGFR(T790M) = tested on: EGFR(T790M)
Procedure: as §1

EPHA4 = tested on: EPHA4
Procedure: as §1

KIT(V559D, V654A) = tested on: KIT(V559D, V654A)
Procedure: as §1

VEGFR2 = tested on: VEGFR2
Procedure: as §1

TNK2 = tested on: TNK2
Procedure: as §1

BMX = tested on: BMX
Procedure: as §1

BRK = tested on: BRK
Procedure: as §1

KIT(L576P) = tested on: KIT(L576P)
Procedure: as §1

[4] = tested on: EGFR(L747-S752del, P753S)
Procedure: as §1

EPHA2 = tested on: EPHA2
Procedure: as §1

[5] = tested on: EGFR(L747-E749del, A750P)
Procedure: as §1

MST1R = tested on: MST1R
Procedure: as §1

[6] = tested on: ABL1(T315I)-nonphosphorylated
Procedure: as §1

ERBB2 = tested on: ERBB2
Procedure: as §1

KIT-autoinhibited = tested on: KIT-autoinhibited
Procedure: as §1

For `Cc1cc2c([nH]1)/C=C1\C(=O)Nc3c(Cl)cc(cc31)-c1cn(C)nc1COC[C@@H](C)NC2=O` [Cpd. 3, [3a(4)Z,10R]-20-chloro-6,10,15-trimethyl-10,11,13,15-tetrahydro-2H-1,17-(ethanediylidene)pyrazolo[4,3-m]dipyrrolo[3,2-f:3′,4′-i][1,4]oxazacyclopentadecine-3,8(5H,9H)-dione], the “% Ctrl” value (MET) was 100%, the “% Ctrl” value (FLT3) was 57% and the “% Ctrl” value (DDR1) was 98%. For the same compound, the “% Ctrl” value (ABL1-phosphorylated) was 96%, the “% Ctrl” value (AXL) was 86% and the “% Ctrl” value (LTK) was 100%. For the same compound, the “% Ctrl” value (EGFR) was 79%, the “% Ctrl” value (FYN) was 100% and the “% Ctrl” value (EGFR(E746-A750del)) was 98%. For the same compound, the “% Ctrl” value (FLT4) was 100%, the “% Ctrl” value (TIE1) was 93% and the “% Ctrl” value (FLT3(R834Q)) was 100%. For the same compound, the “% Ctrl” value (IGF1R) was 95%, the “% Ctrl” value (ROS1) was 62% and the “% Ctrl” value (RET(V804M)) was 100%. For the same compound, the “% Ctrl” value (ABL2) was 97%, the “% Ctrl” value (KIT) was 100% and the “% Ctrl” value [1] was 91%. For the same compound, the “% Ctrl” value (EPHA3) was 75%, the “% Ctrl” value [2] was 100% and the “% Ctrl” value (TYRO3) was 94%. The “% Ctrl” value [3] was 97%, the “% Ctrl” value (EGFR(S752-1759del)) was 94% and the “% Ctrl” value (FGR) was 98%. The “% Ctrl” value (FLT3(D835H)) was 100%, the “% Ctrl” value (PDGFRA) was 92% and the “% Ctrl” value (EGFR(T790M)) was 87%. For the same compound, the “% Ctrl” value (EPHA4) was 92%, the “% Ctrl” value (KIT(V559D, V654A)) was 100% and the “% Ctrl” value (VEGFR2) was 92%. The “% Ctrl” value (TNK2) was 97%, the “% Ctrl” value (BMX) was 91% and the “% Ctrl” value (BRK) was 95%. The “% Ctrl” value (KIT(L576P)) was 100%, the “% Ctrl” value [4] was 90% and the “% Ctrl” value (EPHA2) was 93%. For the same compound, the “% Ctrl” value [5] was 90%, the “% Ctrl” value (MST1R) was 98% and the “% Ctrl” value [6] was 100%. For the same compound, the “% Ctrl” value (ERBB2) was 100% and the “% Ctrl” value (KIT-autoinhibited) was 87%.
With `Cc1cc2c([nH]1)/C=C1\C(=O)Nc3ccc(cc31)-c1c(nn(C)c1C)COCCN(C)C2=O` [Cpd. 2, [3a(4)Z]-6,9,15,16-tetramethyl-10,11,13,15-tetrahydro-2H-1,17-(ethanediylidene)pyrazolo[4,3-m]dipyrrolo[3,2-f:3′,4′-i][1,4]oxazacyclopentadecine-3,8(5H,9H)-dione] the “% Ctrl” value (MET) was 95%, the “% Ctrl” value (FLT3) was 67% and the “% Ctrl” value (DDR1) was 100%. For the same compound, the “% Ctrl” value (ABL1-phosphorylated) was 50%, the “% Ctrl” value (AXL) was 43% and the “% Ctrl” value (LTK) was 100%. For the same compound, the “% Ctrl” value (EGFR) was 66%, the “% Ctrl” value (FYN) was 100% and the “% Ctrl” value (EGFR(E746-A750del)) was 100%. For the same compound, the “% Ctrl” value (FLT4) was 19%, the “% Ctrl” value (TIE1) was 61% and the “% Ctrl” value (FLT3(R834Q)) was 50%. For the same compound, the “% Ctrl” value (IGF1R) was 88%, the “% Ctrl” value (ROS1) was 97% and the “% Ctrl” value (RET(V804M)) was 77%. For the same compound, the “% Ctrl” value (ABL2) was 96%, the “% Ctrl” value (KIT) was 100% and the “% Ctrl” value [1] was 60%. The “% Ctrl” value (EPHA3) was 99%, the “% Ctrl” value [2] was 64% and the “% Ctrl” value (TYRO3) was 100%. The “% Ctrl” value [3] was 98%, the “% Ctrl” value (EGFR(S752-1759del)) was 80% and the “% Ctrl” value (FGR) was 100%. The “% Ctrl” value (FLT3(D835H)) was 31%, the “% Ctrl” value (PDGFRA) was 73% and the “% Ctrl” value (EGFR(T790M)) was 85%. The “% Ctrl” value (EPHA4) was 100%, the “% Ctrl” value (KIT(V559D, V654A)) was 92% and the “% Ctrl” value (VEGFR2) was 48%. The “% Ctrl” value (TNK2) was 89%, the “% Ctrl” value (BMX) was 95% and the “% Ctrl” value (BRK) was 100%. For the same compound, the “% Ctrl” value (KIT(L576P)) was 100%, the “% Ctrl” value [4] was 100% and the “% Ctrl” value (EPHA2) was 85%. For the same compound, the “% Ctrl” value [5] was 85%, the “% Ctrl” value (MST1R) was 100% and the “% Ctrl” value [6] was 17%. For the same compound, the “% Ctrl” value (ERBB2) was 100% and the “% Ctrl” value (KIT-autoinhibited) was 100%.
`Cc1cc2c([nH]1)/C=C1\C(=O)Nc3c(Cl)cc(cc31)-c1cn(C)nc1COC[C@@H](C)N(C)C2=O` [Cpd. 5, [3a(4)Z,10R]-20-chloro-6,9,10,15-tetramethyl-10,11,13,15-tetrahydro-2H-1,17-(ethanediylidene)pyrazolo[4,3-m]dipyrrolo[3,2-f:3′,4′-i][1,4]oxazacyclopentadecine-3,8(5H,9H)-dione] was tested, and the “% Ctrl” value (MET) was 96%, the “% Ctrl” value (FLT3) was 94% and the “% Ctrl” value (DDR1) was 93%. For the same compound, the “% Ctrl” value (ABL1-phosphorylated) was 79%, the “% Ctrl” value (AXL) was 86% and the “% Ctrl” value (LTK) was 93%. The “% Ctrl” value (EGFR) was 96%, the “% Ctrl” value (FYN) was 77% and the “% Ctrl” value (EGFR(E746-A750del)) was 95%. The “% Ctrl” value (FLT4) was 98%, the “% Ctrl” value (TIE1) was 91% and the “% Ctrl” value (FLT3(R834Q)) was 98%. For the same compound, the “% Ctrl” value (IGF1R) was 98%, the “% Ctrl” value (ROS1) was 69% and the “% Ctrl” value (RET(V804M)) was 90%. The “% Ctrl” value (ABL2) was 96%, the “% Ctrl” value (KIT) was 98% and the “% Ctrl” value [1] was 73%. The “% Ctrl” value (EPHA3) was 79%, the “% Ctrl” value [2] was 80% and the “% Ctrl” value (TYRO3) was 84%. For the same compound, the “% Ctrl” value [3] was 97%, the “% Ctrl” value (EGFR(S752-1759del)) was 100% and the “% Ctrl” value (FGR) was 93%. The “% Ctrl” value (FLT3(D835H)) was 79%, the “% Ctrl” value (PDGFRA) was 95% and the “% Ctrl” value (EGFR(T790M)) was 80%. For the same compound, the “% Ctrl” value (EPHA4) was 93%, the “% Ctrl” value (KIT(V559D, V654A)) was 91% and the “% Ctrl” value (VEGFR2) was 92%. For the same compound, the “% Ctrl” value (TNK2) was 87%, the “% Ctrl” value (BMX) was 100% and the “% Ctrl” value (BRK) was 79%. For the same compound, the “% Ctrl” value (KIT(L576P)) was 97%, the “% Ctrl” value [4] was 86% and the “% Ctrl” value (EPHA2) was 100%. The “% Ctrl” value [5] was 74%, the “% Ctrl” value (MST1R) was 95% and the “% Ctrl” value [6] was 100%. For the same compound, the “% Ctrl” value (ERBB2) was 100% and the “% Ctrl” value (KIT-autoinhibited) was 83%.
